According to ChEMBL document CHEMBL3593172, “4-(N-Phenyl-N'-substituted benzenesulfonyl)-6-(4-hydroxyphenyl)quinolines as inhibitors of mammalian target of rapamycin” (Bioorg Med Chem, 2015):
pIC50: −log10 of the molar value. Calls of active or inactive are those of the source. The calls are words filed in the database; no cut-off is given here.

Tests used:
[1] = cells; conditions: Homo sapiens, MIA PaCa-2, 48 h
Description: Cytotoxicity against human MIAPaCa2 cells assessed as inhibition of cell proliferation after 48 hrs by MTT assay

[2] = system: PC-3; assay: cells; conditions: Homo sapiens, PC-3, 48 h
Description: Cytotoxicity against human PC3 cells assessed as inhibition of cell proliferation after 48 hrs by MTT assay

[3] = system: HepG2; assay: Cytotoxicity against human HepG2 cells assessed as growth inhibition at 10 uM after 24 to 48 hrs by MTT assay relative to control; type: functional; conditions: read-out: GI
[4] = system: HCT-116; assay: cells; conditions: Homo sapiens, HCT-116, 48 h
Description: Cytotoxicity against human HCT116 cells assessed as inhibition of cell proliferation after 48 hrs by MTT assay

[5] = system: HepG2; assay: cells; conditions: Homo sapiens, HepG2, 48 h
Description: Cytotoxicity against human HepG2 cells assessed as inhibition of cell proliferation after 48 hrs by MTT assay

[6] = system: HL-60; assay: cells; conditions: Homo sapiens, HL-60, 48 h
Description: Cytotoxicity against human HL60 cells assessed as inhibition of cell proliferation after 48 hrs by MTT assay

[7] = system: HCT-116; assay: Cytotoxicity against human HCT116 cells assessed as growth inhibition at 100 uM after 24 to 48 hrs by MTT assay relative to control; type: functional; conditions: read-out: GI
[8] = system: HL-60; assay: Cytotoxicity against human HL60 cells assessed as growth inhibition at 100 uM after 24 to 48 hrs by MTT assay relative to control; type: functional; conditions: read-out: GI
[9] = system: PC-3; assay: Cytotoxicity against human PC3 cells assessed as growth inhibition at 30 uM after 24 to 48 hrs by MTT assay relative to control; type: functional; conditions: read-out: GI
[10] = system: HL-60; assay: Cytotoxicity against human HL60 cells assessed as growth inhibition at 10 uM after 24 to 48 hrs by MTT assay relative to control; type: functional; conditions: read-out: GI
[11] = Cytotoxicity against human MIAPaCa2 cells assessed as growth inhibition at 30 uM after 24 to 48 hrs by MTT assay relative to control; type: functional; conditions: MIA PaCa-2, read-out: GI
[12] = system: HepG2; assay: Cytotoxicity against human HepG2 cells assessed as growth inhibition at 30 uM after 24 to 48 hrs by MTT assay relative to control; type: functional; conditions: read-out: GI
[13] = Cytotoxicity against human MIAPaCa2 cells assessed as growth inhibition at 10 uM after 24 to 48 hrs by MTT assay relative to control; type: functional; conditions: MIA PaCa-2, read-out: GI
[14] = system: HL-60; assay: Cytotoxicity against human HL60 cells assessed as growth inhibition at 30 uM after 24 to 48 hrs by MTT assay relative to control; type: functional; conditions: read-out: GI
[15] = system: PC-3; assay: Cytotoxicity against human PC3 cells assessed as growth inhibition at 10 uM after 24 to 48 hrs by MTT assay relative to control; type: functional; conditions: read-out: GI
[16] = system: HCT-116; assay: Cytotoxicity against human HCT116 cells assessed as growth inhibition at 30 uM after 24 to 48 hrs by MTT assay relative to control; type: functional; conditions: read-out: GI
[17] = system: HCT-116; assay: Cytotoxicity against human HCT116 cells assessed as growth inhibition at 10 uM after 24 to 48 hrs by MTT assay relative to control; type: functional; conditions: read-out: GI
[18] = Cytotoxicity against human MIAPaCa2 cells assessed as growth inhibition at 100 uM after 24 to 48 hrs by MTT assay relative to control; type: functional; conditions: MIA PaCa-2, read-out: GI
[19] = system: PC-3; assay: Cytotoxicity against human PC3 cells assessed as growth inhibition at 100 uM after 24 to 48 hrs by MTT assay relative to control; type: functional; conditions: read-out: GI
[20] = system: HepG2; assay: Cytotoxicity against human HepG2 cells assessed as growth inhibition at 100 uM after 24 to 48 hrs by MTT assay relative to control; type: functional; conditions: read-out: GI
[21] = Cell cycle arrest in human MIAPaCa2 cells assessed as accumulation at G1 phase at 20 uM after 24 hrs by propidium iodide staining-based flow cytometric analysis (reference value: 51%); type: functional; conditions: MIA PaCa-2
[22] = Disruption of mitochondrial membrane potential in human MIAPaCa2 cells at 10 uM after 24 hrs by Rh123 dye-based flow cytometric analysis (reference value: 6%); type: functional, MIA PaCa-2
[23] = Cell cycle arrest in human MIAPaCa2 cells assessed as accumulation at G2 phase at 20 uM after 24 hrs by propidium iodide staining-based flow cytometric analysis (reference value: 5%); type: functional; conditions: MIA PaCa-2
[24] = Cell cycle arrest in human MIAPaCa2 cells assessed as accumulation at S phase at 10 uM after 24 hrs by propidium iodide staining-based flow cytometric analysis (reference value: […]%); type: functional; conditions: MIA PaCa-2
[25] = Cell cycle arrest in human MIAPaCa2 cells assessed as apoptotic cells at 10 uM after 24 hrs by propidium iodide staining-based flow cytometric analysis (reference value: 0.1%); type: functional; conditions: MIA PaCa-2
[26] = Cell cycle arrest in human MIAPaCa2 cells assessed as apoptotic cells at 30 uM after 24 hrs by propidium iodide staining-based flow cytometric analysis (reference value: 0.1%); type: functional; conditions: MIA PaCa-2
[27] = Cell cycle arrest in human MIAPaCa2 cells assessed as accumulation at G1 phase at 10 uM after 24 hrs by propidium iodide staining-based flow cytometric analysis (reference value: 51%); type: functional; conditions: MIA PaCa-2
[28] = Disruption of mitochondrial membrane potential in human MIAPaCa2 cells at 20 uM after 24 hrs by Rh123 dye-based flow cytometric analysis (reference value: 6%); type: functional, MIA PaCa-2
[29] = Cell cycle arrest in human MIAPaCa2 cells after 24 hrs by propidium iodide staining-based flow cytometric analysis; type: functional; conditions: MIA PaCa-2
[30] = Cell cycle arrest in human MIAPaCa2 cells assessed as accumulation at G1 phase at 30 uM after 24 hrs by propidium iodide staining-based flow cytometric analysis (reference value: 51%); type: functional; conditions: MIA PaCa-2
[31] = system: MIA PaCa-2; assay: Effect on P110alpha expression in human MIAPaCa2 cells at 5 to 10 uM measured after 2 to 4 hrs by Western blot analysis; type: functional, cell-based
[32] = Cell cycle arrest in human MIAPaCa2 cells assessed as accumulation at S phase at 30 uM after 24 hrs by propidium iodide staining-based flow cytometric analysis (reference value: […]%); type: functional; conditions: MIA PaCa-2
[33] = Cell cycle arrest in human MIAPaCa2 cells assessed as apoptotic cells at 20 uM after 24 hrs by propidium iodide staining-based flow cytometric analysis (reference value: 0.1%); type: functional; conditions: MIA PaCa-2
[34] = Cell cycle arrest in human MIAPaCa2 cells assessed as accumulation at G2 phase at 30 uM after 24 hrs by propidium iodide staining-based flow cytometric analysis (reference value: 5%); type: functional; conditions: MIA PaCa-2
[35] = Disruption of mitochondrial membrane potential in human MIAPaCa2 cells at 30 uM after 24 hrs by Rh123 dye-based flow cytometric analysis (reference value: 6%); type: functional, MIA PaCa-2
[36] = Cell cycle arrest in human MIAPaCa2 cells assessed as accumulation at S phase at 20 uM after 24 hrs by propidium iodide staining-based flow cytometric analysis (reference value: […]%); type: functional; conditions: MIA PaCa-2
[37] = Cell cycle arrest in human MIAPaCa2 cells assessed as accumulation at G2 phase at 10 uM after 24 hrs by propidium iodide staining-based flow cytometric analysis (reference value: 5%); type: functional; conditions: MIA PaCa-2
[38] = system: MIA PaCa-2; assay: Effect on mTORC2 complex in human MIAPaCa2 cells assessed as p-Akt phosphorylation at S473 at 5 to 10 uM measured at 2 hrs by Western blot analysis; type: cell-based

SMILES: CC(C)(C)c1ccc(S(=O)(=O)N(c2ccccc2)c2ccnc3ccc(-c4ccc(O)cc4)cc23)cc1
- pIC50 [1]: > 5.00
- pIC50 [2]: 4.36
- inhibition of growth at 10 µM [3]: 14%
- pIC50 [4]: 4.51
- pIC50 [5]: 4.74
- pIC50 [6]: > 5.00
- inhibition of growth at 100 µM [7]: 83%
- inhibition of growth at 100 µM [8]: 93%
- inhibition of growth at 30 µM [9]: 45%
- inhibition of growth at 10 µM [10]: 76%
- inhibition of growth at 30 µM [11]: 85%
- inhibition of growth at 30 µM [12]: 89%
- inhibition of growth at 10 µM [13]: 79%
- inhibition of growth at 30 µM [14]: 89%
- inhibition of growth at 10 µM [15]: 21%
- inhibition of growth at 30 µM [16]: 35%
- inhibition of growth at 10 µM [17]: 20%
- inhibition of growth at 100 µM [18]: 90%
- inhibition of growth at 100 µM [19]: 70%
- inhibition of growth at 100 µM [20]: 98%

SMILES: CC(=O)Nc1ccc(S(=O)(=O)N(c2ccccc2)c2ccnc3ccc(-c4ccc(O)cc4)cc23)cc1
- pIC50 [1]: 5.15
- Activity [21]: 66%
- pIC50 [2]: 4.12
- Activity [22]: 13%
- inhibition of growth at 10 µM [3]: 5%
- pIC50 [4]: > 4.00
- Activity [23]: 13%
- pIC50 [5]: 4.66
- Activity [24]: 22%
- Activity [25]: 1%
- Activity [26]: 6%
- Activity [27]: 59%
- pIC50 [6]: 4.80
- inhibition of growth at 100 µM [7]: 29%
- inhibition of growth at 100 µM [8]: 94%
- inhibition of growth at 30 µM [9]: 14%
- Activity [28]: 23%
- inhibition of growth at 10 µM [10]: 25%
- Activity [29]: Dose-dependent effect
- Activity [30]: 67%
- inhibition of growth at 30 µM [11]: 89%
- inhibition of growth at 30 µM [12]: 83%
- inhibition of growth at 10 µM [13]: 64%
- Activity [31]: inactive
- Activity [32]: 19%
- Activity [33]: 1%
- Activity [34]: 15%
- inhibition of growth at 30 µM [14]: 93%
- Activity [35]: 42%
- Activity [36]: 21%
- Activity [37]: 19%
- inhibition of growth at 10 µM [15]: 12%
- inhibition of growth at 30 µM [16]: 25%
- inhibition of growth at 10 µM [17]: 19%
- inhibition of growth at 100 µM [18]: 89%
- Activity [38]: inactive
- inhibition of growth at 100 µM [19]: 25%
- inhibition of growth at 100 µM [20]: 87%

SMILES: O=C(c1cccnc1Cl)N(c1ccccc1)c1ccnc2ccc(-c3ccc(O)cc3)cc12
- pIC50 [1]: > 5.00
- pIC50 [2]: 4.96
- inhibition of growth at 10 µM [3]: 19%
- pIC50 [4]: 4.80
- pIC50 [5]: 4.72
- pIC50 [6]: > 5.00
- inhibition of growth at 100 µM [7]: 89%
- inhibition of growth at 100 µM [8]: 95%
- inhibition of growth at 30 µM [9]: 90%
- inhibition of growth at 10 µM [10]: 92%
- inhibition of growth at 30 µM [11]: 89%
- inhibition of growth at 30 µM [12]: 87%
- inhibition of growth at 10 µM [13]: 69%
- inhibition of growth at 30 µM [14]: 94%
- inhibition of growth at 10 µM [15]: 47%
- inhibition of growth at 30 µM [16]: 88%
- inhibition of growth at 10 µM [17]: 29%
- inhibition of growth at 100 µM [18]: 89%
- inhibition of growth at 100 µM [19]: 90%
- inhibition of growth at 100 µM [20]: 88%

SMILES: COc1ccc(-c2ccc3nccc(Nc4ccccc4)c3c2)cc1
- pIC50 [1]: 4.59
- pIC50 [2]: 4.41
- inhibition of growth at 10 µM [3]: 19%
- pIC50 [4]: 4.40
- pIC50 [5]: < 4.00
- pIC50 [6]: 4.74
- inhibition of growth at 100 µM [7]: 77%
- inhibition of growth at 100 µM [8]: 91%
- inhibition of growth at 30 µM [9]: 46%
- inhibition of growth at 10 µM [10]: 32%
- inhibition of growth at 30 µM [11]: 53%
- inhibition of growth at 30 µM [12]: 30%
- inhibition of growth at 10 µM [13]: 42%
- inhibition of growth at 30 µM [14]: 69%
- inhibition of growth at 10 µM [15]: 40%
- inhibition of growth at 30 µM [16]: 45%
- inhibition of growth at 10 µM [17]: 16%
- inhibition of growth at 100 µM [18]: 55%
- inhibition of growth at 100 µM [19]: 71%
- inhibition of growth at 100 µM [20]: 36%
